# Key:
# HCT 116 = experiment: DNA fragmentation after PDTC treatment; format: cell-based, human; conditions: 70 μM
# Primary colonocytes [1] = experiment: DNA fragmentation after PDTC treatment; format: cell-based, human; conditions: 70 μM
# HCT 15 cells = experiment: Soft-agar colony formation (anchorage-independent growth); conditions: Homo sapiens, HCT-15, 240 h, read-out: approximate IC50 in soft agar
# Protocol: (§1) FIG. 1A is a graph of the concentration of PDTC versus soft-agar forming units×10^6 HCT 15 and HCT 116 cells (as a percent of control). […] Soft-agar colony formation was measured by seeding HCT 116 or HCT 15 cells in soft agar supplemented with either medium alone (control), or increasing concentrations of pyrrolidinedithiocarbamate (25–200 μM) or vitamin E (0.1–10 mM). Colonies were scored at the end of 10 days incubation at 37° C. Values are representative of three experiments carried out in quadruplicate.
# (§2) HCT 116 and HCT 15 cells were seeded in soft agar as described above containing increasing concentrations of either 5-FU (5×10^−8 to 5×10^−5 M) or doxorubicin (1×10^−9 to 1×10^−6 M), in the presence or absence of pyrrolidinedithiocarbamate (70 μM) or vitamin E (3 mM). Colonies were scored after 10 days and IC50 values were calculated as the concentration of 5-FU or doxorubicin required to reduce basal colony formation by 50% (±s.e.m.). Values are representative of three experiments carried out in quadruplicate.
# HCT 116 cells = experiment: as above; conditions: Homo sapiens, HCT-116, 240 h, read-out: approximate IC50 in soft agar
# Protocol: as §1, §2
# [2] = system: murine small intestine and the murine colon; conditions: mouse, in vivo
# Mutant p53 HCT 15 = experiment: DNA fragmentation after PDTC treatment; format: cell-based, human; conditions: 70 μM
# HCT 15-derived tumors = experiment: HCT 15 tumor xenografts in athymic mice; format: in vivo; conditions: HCT 15-derived tumors, after 3 weeks of single agent treatment, before cross-over
# Protocol: HCT 15-derived tumors were generated as described above. Animals were then treated with pyrrolidinedithiocarbamate, in the presence or absence of 5-FU, for 3 weeks. At this point, treatments were discontinued in animals receiving the combined treatment of pyrrolidinedithiocarbamate and 5-FU for 2 months. All other treatment groups received both 5-FU and pyrrolidinedithiocarbamate for the remaining 3 weeks.
# Male athymic Balb/c nu/nu mice were obtained from the Harlan Sprague-Dawley Company at 4–6 weeks of age and were quarantined for at least 2 weeks before the study. […] HCT 116 and HCT 15 CRC cell lines were grown in DMEM supplemented with 10% FBS as described above. Cells were harvested through two consecutive trypsinizations, centrifuged at 300 g for 5 minutes, washed twice, and resuspended in sterile phosphate buffered saline. One ×10^6 cells in 0.2 ml were injected subcutaneously between the scapula of 7- to 10-week-old male nude mice.
# Tumor volumes were estimated weekly by measuring the maximal length, width, and height. Once tumors reached a mean size of 120 to 150 mm^3, animals received either weekly i.p. injections of pyrrolidinedithiocarbamate (70 μM) or vitamin E (3 mM), 5-FU (40 mg/kg) or saline, or a combination of pyrrolidinedithiocarbamate or vitamin E and 5-FU or 6 weeks. In cross-over experiments, animals received the above treatments for three weeks (with the exception of vitamin E), and then were crossed-over to either the combination treatment of pyrrolidinedithiocarbamate and 5-FU (saline, pyrrolidinedithiocarbamate or 5-FU alone) or discontinued treatment pyrrolidinedithiocarbamate and 5-FU) for the remaining three weeks of the experiment. […] Tumor volumes were recorded weekly until termination of the study.
# Tumor tissues were fixed overnight in 4% (v/v) paraformaldehyde and embedded in paraffin according to standard histological procedures. […] The proliferative index (BrDU) and the apoptotic index (TUNEL) were estimated by the percentage of cells scored under a microscope at 200-fold magnification.
# DLD-1 = experiment: DNA fragmentation after PDTC treatment; format: cell-based; conditions: 70 μM
# Wild Type p53 HCA-7 = experiment: DNA fragmentation after PDTC treatment; format: cell-based; conditions: 70 μM
# DKO-3 = experiment: DNA fragmentation after PDTC treatment; format: cell-based; conditions: 70 μM
# MDA-MB231 = experiment: Effect of PDTC on cell proliferation (IC50); format: cell-based; conditions: Homo sapiens, MDA-MB-231, Breast carcinoma cells, read-out: IC50 required to inhibit cellular proliferation or induce apoptosis
# Protocol: (§3) The effect of PDTC on cellular proliferation or apoptosis was evaluated in a number of normal and cancer cell lines. The IC50 was measured as the concentration of PDTC that inhibited cellular proliferation.
# BxPc3 = experiment: Effect of PDTC on cell proliferation (IC50); format: cell-based; conditions: Homo sapiens, BXPC-3, Pancreatic carcinoma cells, read-out: IC50 required to inhibit cellular proliferation or induce apoptosis
# Protocol: as §3
# AsPo1 = experiment: Effect of PDTC on cell proliferation (IC50); format: cell-based; conditions: Pancreatic carcinoma cells, read-out: IC50 required to inhibit cellular proliferation or induce apoptosis
# Protocol: as §3
# Saos-2 = experiment: Effect of PDTC on cell proliferation (IC50); format: cell-based; conditions: Homo sapiens, Osteosarcoma, read-out: IC50 required to inhibit cellular proliferation or induce apoptosis
# Protocol: as §3
# N-87 = experiment: Effect of PDTC on cell proliferation (IC50); format: cell-based; conditions: Gastric carcinoma cells, read-out: IC50 required to inhibit cellular proliferation or induce apoptosis
# Protocol: as §3
# MCF-10WT = experiment: Effect of PDTC on cell proliferation (IC50); format: cell-based; conditions: Breast carcinoma cell, Breast carcinoma cells, read-out: IC50 required to inhibit cellular proliferation or induce apoptosis
# Protocol: as §3
# [3] = system: Non-transformed rat intestinal epithelial cells; experiment: Effect of PDTC on cell proliferation (IC50); format: cell-based; conditions: Normal cells, read-out: IC50 required to inhibit cellular proliferation or induce apoptosis
# Protocol: as §3
# PANC-1 = experiment: Effect of PDTC on cell proliferation (IC50); format: cell-based; conditions: Homo sapiens, Pancreatic carcinoma cells, read-out: IC50 required to inhibit cellular proliferation or induce apoptosis
# Protocol: as §3
# MCF-10HRas = experiment: Effect of PDTC on cell proliferation (IC50); format: cell-based; conditions: Breast carcinoma cell, Breast carcinoma cells, read-out: IC50 required to inhibit cellular proliferation or induce apoptosis
# Protocol: as §3
# Hs746T = experiment: Effect of PDTC on cell proliferation (IC50); format: cell-based; conditions: Homo sapiens, Gastric carcinoma cells, read-out: IC50 required to inhibit cellular proliferation or induce apoptosis
# Protocol: as §3
# MDA MB-468 = experiment: Effect of PDTC on cell proliferation (IC50); format: cell-based; conditions: Homo sapiens, Breast carcinoma cells, read-out: IC50 required to inhibit cellular proliferation or induce apoptosis
# Protocol: as §3
# Keratinocytes = experiment: Effect of PDTC on cell proliferation (IC50); format: cell-based; conditions: Homo sapiens, Keratinocyte, Normal cells, read-out: IC50 required to inhibit cellular proliferation or induce apoptosis
# Protocol: as §3
# MCF-7 = experiment: Effect of PDTC on cell proliferation (IC50); format: cell-based; conditions: Homo sapiens, MCF7, Breast carcinoma cells, read-out: IC50 required to inhibit cellular proliferation or induce apoptosis
# Protocol: as §3
# [4] = system: Primary mammary epithelia; experiment: Effect of PDTC on cell proliferation (IC50); format: cell-based; conditions: Homo sapiens, Normal cells, read-out: IC50 required to inhibit cellular proliferation or induce apoptosis
# Protocol: as §3
# Primary colonocytes [5] = experiment: Effect of PDTC on cell proliferation (IC50); format: cell-based; conditions: Homo sapiens, Normal cells, read-out: IC50 required to inhibit cellular proliferation or induce apoptosis
# Protocol: as §3
structure (smiles),measurement,setting,value
"S=C(S)N1CCCC1 [PDTC, pyrrolidinedithiocarbamate]",DNA Fragmentation after PDTC Treatment,HCT 116; 3 h,108 ± 11 % Control
same,DNA Fragmentation after PDTC Treatment,HCT 116; 6 h,131 ± 21 % Control
same,DNA Fragmentation after PDTC Treatment,HCT 116; 12 h,198 ± 23 % Control
same,DNA Fragmentation after PDTC Treatment,HCT 116; 24 h,367 ± 49 % Control
same,DNA Fragmentation after PDTC Treatment,Primary colonocytes [1]; 3 h,101 ± 10 % Control
same,DNA Fragmentation after PDTC Treatment,Primary colonocytes [1]; 6 h,109 ± 9 % Control
same,DNA Fragmentation after PDTC Treatment,Primary colonocytes [1]; 12 h,107 ± 10 % Control
same,DNA Fragmentation after PDTC Treatment,Primary colonocytes [1]; 24 h,130 ± 16 % Control
same,IC50,HCT 15 cells,~70 µM
same,IC50,HCT 116 cells,~70 µM
same,toxicity of 5-FU,[2],substantially reduces the toxicity of 5-FU
same,DNA Fragmentation after PDTC Treatment,Mutant p53 HCT 15; 3 h,145 ± 12 % Control
same,DNA Fragmentation after PDTC Treatment,Mutant p53 HCT 15; 6 h,259 ± 18 % Control
same,DNA Fragmentation after PDTC Treatment,Mutant p53 HCT 15; 12 h,673 ± 34 % Control
same,DNA Fragmentation after PDTC Treatment,Mutant p53 HCT 15; 24 h,979 ± 34 % Control
same,tumor size,HCT 15-derived tumors,1325+210 mm^3
same,DNA Fragmentation after PDTC Treatment,DLD-1; 3 h,213 ± 17 % Control
same,DNA Fragmentation after PDTC Treatment,DLD-1; 6 h,296 ± 21 % Control
same,DNA Fragmentation after PDTC Treatment,DLD-1; 12 h,712 ± 34 % Control
same,DNA Fragmentation after PDTC Treatment,DLD-1; 24 h,876 ± 46 % Control
same,DNA Fragmentation after PDTC Treatment,Wild Type p53 HCA-7; 3 h,111 ± 13 % Control
same,DNA Fragmentation after PDTC Treatment,Wild Type p53 HCA-7; 6 h,126 ± 17 % Control
same,DNA Fragmentation after PDTC Treatment,Wild Type p53 HCA-7; 12 h,154 ± 19 % Control
same,DNA Fragmentation after PDTC Treatment,Wild Type p53 HCA-7; 24 h,302 ± 35 % Control
same,DNA Fragmentation after PDTC Treatment,DKO-3; 3 h,223 ± 11 % Control
same,DNA Fragmentation after PDTC Treatment,DKO-3; 6 h,478 ± 16 % Control
same,DNA Fragmentation after PDTC Treatment,DKO-3; 12 h,896 ± 23 % Control
same,DNA Fragmentation after PDTC Treatment,DKO-3; 24 h,1116 ± 54 % Control
same,IC50,MDA-MB231,10 µM
same,IC50,BxPc3,100 µM
same,IC50,AsPo1,70 µM
same,IC50,Saos-2,10 µM
same,IC50,N-87,40 µM
same,IC50,MCF-10WT,5 µM
same,IC50,[3],450 µM
same,IC50,PANC-1,75 µM
same,IC50,MCF-10HRas,5 µM
same,IC50,Hs746T,35 µM
same,IC50,MDA MB-468,20 µM
same,IC50,Keratinocytes,600 µM
same,IC50,MCF-7,13 µM
same,IC50,[4],650 µM
same,IC50,Primary colonocytes [5],500 µM
